Measurements from patent publication US20080103089A1, “Compounds, Compositions, Formulations and Process for Preparation Thereof and Method of Treatment and Management of Acidity and Related Disorders” (priority 2004, published 2008).

What was measured:
Type in all cases: physicochemical
[1] = Titration of Glutamic acid in water with NaOH
Description: About one milliequivalent of NaOH was neutralized per milliequivalent of Glutamic acid in water to raise the pH of its aqueous solution from 2.9 to about 5.

[2] = Determination of Acid Neutralization Capacity (ANC) by titration against 1N HCl
Protocol: About 20 ml of 1N NaOH was added to about or less than 1 gram dry weight of the active ingredient (Protein isolate or protein rich extract) with about 10 ml water content. In cold treatment, the mixture was kept at room temperature overnight until the sedimented coagulum was seen to have been dispersed evenly in a solution. In a hot treatment, the mixture was kept in an oven at 80 degrees Celsius, volume restored to 30 ml by addition of distilled water and titrated after various stages of degradation after the period of treatment. Alkali remaining in excess was either neutralized by titrating against 1N HCl until pH dropped to 10.8 or by dialyzing the mixture using gelatin membrane against 700 milliliter portions of distilled water three to four times until the dialysate contained little alkalinity.
Acid Neutralization Capacity was noted as milliequivalents of HCl neutralized to maintain the pH at 3 for two hours and expressed as per gram dry weight of the active antacid ingredient or per dose of the antacid composition containing the active ingredient. Total volume of the reactants were adjusted to 30 ml or 40 ml and titrated against 1N HCl and pH was noted after each small dropwise addition. The pH was measured by a pH meter.
In titration of distilled water, it was observed that pH of the water raised rapidly to 10.8 with addition of a single drop. Similarly, while titrating 1N NaOH against 1N HCl, fall in pH from 12.2 to 10.8 was gradual. However, thereafter, just one drop was sufficient to lower the pH to neutral. Thus, it was clear that acid neutralized by the products within the pH range of 3 to 10.8 was due to Acid Neutralization Capacity when solutions of antacid active ingredients covered in the examples were titrated for determination of their ANC.
When alkali treated mixtures were titrated, acid required to bring down the pH to 10.8 was considered as acid required to neutralize the unreacted NaOH. Acid required to neutralize pH from 10.8 up to pH 3 was taken for calculation of ANC.
Whenever desired, the alkali treated mixture was dialysed through gelatin membrane against about 700 milliliters of distilled water each time three to four times. Significant quantity of alkalinity appeared in first two dialyses in first two hours. Third dialysis, usually done for several hours overnight usually contained very little of alkalinity in the range of pH 10.8 and above.

[3] = Titration of Sodium Glutamate solution
Description: Crystalline Sodium Glutamate gave solution of pH 6.7. It took, per milliequivalent of Sodium Glutamate used, little less than 1 milliequivalent of HCl to bring the pH from 6.7 down to 3 and about 1 milliequivalent of […] the pH from 6.7 to 10.8. Here, the crystalline Sodium Glutamate solution of pH 6.7 represents an intermediate form of alkaline protein.

For N[C@@H](CCC(=O)O)C(=O)O [Glutamic acid], the NaOH consumed ([1]; from pH 5 to 10.9) was “about 1.2 milliequivalents per milliequi”, the “pH of aqueous solution” value ([1]; in water, before titration) was 2.9 and the NaOH neutralized ([1]; to raise pH from 2.9 to about 5) was “About one”.
In the case of Casein, the ANC ([2]; after cold alkali treatment (1N NaOH, room temperature overnight), pH 10.8 to 3) is reported as 1.5 milliequivalents of HCl per gr, the ANC ([2]; after hot alkali treatment (80 degrees Celsius) of 2 days) is reported as 4.88 milliequivalents of HCl per gr and the ANC ([2]; after hot alkali treatment (80 degrees Celsius) of 6 days) is reported as 8 milliequivalents of HCl per gr. It also gave an ANC ([2]; untreated protein isolate, HCl neutralized to maintain pH 3 for two hours) of 0.12 per gram.
With N[C@@H](CCC(=O)[O-])C(=O)[O-].[Na+].[Na+] [Sodium Glutamate] the pH of solution ([3]; crystalline Sodium Glutamate in solution) was 6.7, the “HCl to bring the pH down” value ([3]; pH from 6.7 down to 3) was “less than 1 milliequivalent per milliequiv” and the “HCl to raise the pH” value ([3]; pH from 6.7 to 10.8) was “about 1 milliequivalent per milliequiv”.
